Measured values taken from patent US7739055B2, “Methods and systems for generating and evaluating peptides” (priority 2005, dated 2010).
Values after ≈ are worked out from the molar mass of the structure shown. Where two headings read alike, the source gives them in different places. Where a SMILES comes first, the peptide text is derived from it.

Columns and labels:
[1] = tested on: Escherichia coli
[2] = tested on: B. cereus
[3] = first concentration that prohibits growth by OD at 24 hours, Table 1

KFDPLEGAPMARGIVLEKVG [Peptide 74]
MIC E. coli [1, 3]: + (MIC greater than 256 ug/mL)
MIC B. cereus [2, 3]: + (MIC greater than 256 ug/mL)

SAVGKLASKVFPAVFSMVTK [Peptide 31]
MIC E. coli [1, 3]: + (MIC greater than 256 ug/mL)
MIC B. cereus [2, 3]: + (MIC greater than 256 ug/mL)

KVGKGSYPCSFVKVVAKVSV [Shuffled 85]
MIC E. coli [1, 3]: + (MIC greater than 256 ug/mL)
MIC B. cereus [2, 3]: + (MIC greater than 256 ug/mL)

VVGRVASKVVPSLIGLFTTK [Peptide 65]
MIC E. coli [1, 3]: + (MIC greater than 256 ug/mL)
MIC B. cereus [2, 3]: + (MIC greater than 256 ug/mL)

CC(C)C[C@H](NC(=O)CNC(=O)[C@H](Cc1ccccc1)NC(=O)[C@H](CC(C)C)NC(=O)[C@H](C)NC(=O)CN)C(=O)N[C@@H](C)C(=O)N[C@@H](CO)C(=O)N[C@@H](CCCCN)C(=O)N[C@H](C(=O)N[C@@H](Cc1ccccc1)C(=O)N1CCC[C@H]1C(=O)N[C@@H](C)C(=O)N[C@H](C(=O)N[C@@H](Cc1ccccc1)C(=O)NCC(=O)N[C@@H](C)C(=O)N[C@@H](Cc1ccccc1)C(=O)N[C@@H](CCCCN)C(=O)N[C@@H](CCCCN)C(=O)O)C(C)C)C(C)C [Peptide 30] (H-GALFGLASKVFPAVFGAFKK-OH; N-terminus and C-terminus assumed)
MIC E. coli ([1]; 24 h): 256 µg/mL (≈ 125 µM)
MIC B. cereus [2, 3]: + (MIC greater than 256 ug/mL)

CC[C@H](C)[C@H](NC(=O)[C@H](CC(=O)O)NC(=O)[C@H](CCCCN)NC(=O)[C@@H](NC(=O)[C@H](CC(C)C)NC(=O)[C@H](CO)NC(=O)[C@H](CCSC)NC(=O)[C@H](CC(C)C)NC(=O)CN)C(C)C)C(=O)N[C@@H](C)C(=O)N[C@@H](CCCCN)C(=O)N[C@@H](CC(C)C)C(=O)N[C@@H](C)C(=O)N[C@@H](C)C(=O)N[C@@H](CCCCN)C(=O)N[C@@H](CCC(N)=O)C(=O)NCC(=O)N[C@@H](C)C(=O)N[C@@H](CCCCN)C(=O)N[C@@H](CCC(N)=O)C(=O)O [Peptide 9] (H-GLMSLVKDIAKLAAKQGAKQ-OH; N-terminus and C-terminus assumed)
MIC E. coli ([1]; 24 h): 256 µg/mL (≈ 124 µM)
MIC B. cereus [2, 3]: + (MIC greater than 256 ug/mL)

KSPFVLVVSSRVAAVIKSLP [Shuffled 25]
MIC E. coli [1, 3]: + (MIC greater than 256 ug/mL)
MIC B. cereus [2, 3]: + (MIC greater than 256 ug/mL)

VKRAGKGVAVVPSPLFKIVV [Shuffled 45]
MIC E. coli [1, 3]: + (MIC greater than 256 ug/mL)
MIC B. cereus [2, 3]: + (MIC greater than 256 ug/mL)

HTGRSGPATGHSGHSSTHGS [Peptide 86]
MIC E. coli [1, 3]: + (MIC greater than 256 ug/mL)
MIC B. cereus [2, 3]: + (MIC greater than 256 ug/mL)

SVKPVGSSVVKGTALVKFFG [Shuffled 34]
MIC E. coli [1, 3]: + (MIC greater than 256 ug/mL)
MIC B. cereus [2, 3]: + (MIC greater than 256 ug/mL)

FVGGVASKVVPSVYCKVSKK [Peptide 85]
MIC E. coli [1, 3]: + (MIC greater than 256 ug/mL)
MIC B. cereus [2, 3]: + (MIC greater than 256 ug/mL)

CC[C@H](C)[C@H](NC(=O)CNC(=O)[C@H](CCC(=O)O)NC(=O)[C@H](CO)NC(=O)[C@@H](NC(=O)[C@H](CCCNC(=N)N)NC(=O)[C@H](CCCCN)NC(=O)[C@H](CCCCN)NC(=O)[C@H](C)NC(=O)[C@H](CO)NC(=O)[C@H](CC(N)=O)NC(=O)[C@H](CCC(=O)O)NC(=O)[C@H](CC(C)C)NC(=O)[C@H](CCCCN)NC(=O)[C@H](CCCCN)NC(=O)[C@H](C)NC(=O)[C@@H](NC(=O)[C@H](CCCCN)NC(=O)[C@H](CO)NC(=O)[C@H](CC(C)C)NC(=O)[C@H](Cc1c[nH]c2ccccc12)NC(=O)[C@@H](N)CO)[C@@H](C)O)[C@@H](C)CC)C(=O)N[C@@H](C)C(=O)N[C@H](C(=O)N[C@@H](C)C(=O)N[C@H](C(=O)N[C@@H](CCC(N)=O)C(=O)NCC(=O)NCC(=O)N1CCC[C@H]1C(=O)N[C@@H](CCCNC(=N)N)C(=O)O)[C@@H](C)CC)[C@@H](C)CC [Cecropin P1] (H-SWLSKTAKKLENSAKKRISEGIAIAIQGGPR-OH; N-terminus and C-terminus assumed)
MIC E. coli [1, 3]: 2 µg/mL (≈ 0.599 µM)
MIC B. cereus [2]: + (key: +: MIC greater than 256 ug/mL; ++: MIC greater than 128 ug/mL, not sufficiently soluble to test as 256 ug/mL)

VKTKCSVPAVVYILVKTFKS [Shuffled 88]
MIC E. coli [1, 3]: + (MIC greater than 256 ug/mL)
MIC B. cereus [2, 3]: + (MIC greater than 256 ug/mL)

VDKGSYLPRPTPPRPIYNRN [Pyrrhocoricin]
MIC E. coli [1, 3]: ++ (MIC greater than 128 ug/mL, not sufficiently soluble to test as 256 ug/mL)
MIC B. cereus [2]: ++ (key: +: MIC greater than 256 ug/mL; ++: MIC greater than 128 ug/mL, not sufficiently soluble to test as 256 ug/mL)

SSSIPIKMVLVRALVFVKSG [Shuffled 55]
MIC E. coli [1, 3]: + (MIC greater than 256 ug/mL)
MIC B. cereus [2, 3]: + (MIC greater than 256 ug/mL)

PVVGRVASKVFPAVIGLVKK [Peptide 45]
MIC E. coli [1, 3]: + (MIC greater than 256 ug/mL)
MIC B. cereus [2, 3]: + (MIC greater than 256 ug/mL)

PVIGKLASKVVPSVFSMIKR [Peptide 7]
MIC E. coli [1, 3]: + (MIC greater than 256 ug/mL)
MIC B. cereus [2, 3]: + (MIC greater than 256 ug/mL)

FMKVLAVFGSVVTSAPKASK [Shuffled 31]
MIC E. coli [1, 3]: + (MIC greater than 256 ug/mL)
MIC B. cereus [2, 3]: + (MIC greater than 256 ug/mL)

LPVLFSSAIAKVGIKLGAKV [Shuffled 96]
MIC E. coli [1, 3]: + (MIC greater than 256 ug/mL)
MIC B. cereus [2, 3]: + (MIC greater than 256 ug/mL)

LPVVFKIASKVVPSVISKIT [Peptide 83]
MIC E. coli [1, 3]: + (MIC greater than 256 ug/mL)
MIC B. cereus [2, 3]: + (MIC greater than 256 ug/mL)

VFSVKGGKPSVVIKVVVAST [Shuffled 69]
MIC E. coli [1, 3]: + (MIC greater than 256 ug/mL)
MIC B. cereus [2, 3]: + (MIC greater than 256 ug/mL)

KGRGKQGGKVRAKAKTRSS [Parasin]
MIC E. coli [1, 3]: + (MIC greater than 256 ug/mL)
MIC B. cereus [2, 3]: + (MIC greater than 256 ug/mL)

SVIGKIASKVVPSVYCAISK [Peptide 44]
MIC E. coli [1, 3]: + (MIC greater than 256 ug/mL)
MIC B. cereus [2, 3]: + (MIC greater than 256 ug/mL)

RKRKSDVDFEAEFELFEDDD [Peptide 19]
MIC E. coli [1, 3]: + (MIC greater than 256 ug/mL)
MIC B. cereus [2, 3]: + (MIC greater than 256 ug/mL)

VIAFAKTKEAKAKLKGQAKG [Shuffled 77]
MIC E. coli [1, 3]: + (MIC greater than 256 ug/mL)
MIC B. cereus [2, 3]: + (MIC greater than 256 ug/mL)

MKSIAKFIAKTVAKQGAKQG [Peptide 39]
MIC E. coli [1, 3]: + (MIC greater than 256 ug/mL)
MIC B. cereus [2]: + (key: +: MIC greater than 256 ug/mL; ++: MIC greater than 128 ug/mL, not sufficiently soluble to test as 256 ug/mL)

SKFPLAGIFSVPGVKRVVVI [Shuffled 75]
MIC E. coli [1, 3]: + (MIC greater than 256 ug/mL)
MIC B. cereus [2, 3]: + (MIC greater than 256 ug/mL)

MVVFSVPKFKSTVAKLLSSA [Shuffled 1]
MIC E. coli [1, 3]: + (MIC greater than 256 ug/mL)
MIC B. cereus [2, 3]: + (MIC greater than 256 ug/mL)

FVGSLASKVVPSVFGAIKTK [Peptide 82]
MIC E. coli [1, 3]: + (MIC greater than 256 ug/mL)
MIC B. cereus [2, 3]: + (MIC greater than 256 ug/mL)

GVSSPIVAVKFKGAVASLIK [Shuffled 6]
MIC E. coli [1, 3]: + (MIC greater than 256 ug/mL)
MIC B. cereus [2, 3]: + (MIC greater than 256 ug/mL)

SRVPLKSPVKIVGSKVMIFA [Shuffled 7]
MIC E. coli [1, 3]: + (MIC greater than 256 ug/mL)
MIC B. cereus [2, 3]: + (MIC greater than 256 ug/mL)

LGVVGSLASKVVPAVISKVK [Peptide 57]
MIC E. coli [1, 3]: + (MIC greater than 256 ug/mL)
MIC B. cereus [2, 3]: + (MIC greater than 256 ug/mL)

CC[C@H](C)[C@H](NC(=O)[C@@H](NC(=O)[C@H](CS)NC(=O)[C@H](Cc1ccc(O)cc1)NC(=O)[C@@H](NC(=O)[C@H](C)NC(=O)[C@@H]1CCCN1C(=O)[C@H](Cc1ccccc1)NC(=O)[C@@H](NC(=O)[C@H](CCCCN)NC(=O)[C@H](CO)NC(=O)[C@H](C)NC(=O)[C@H](CC(C)C)NC(=O)[C@H](CCCCN)NC(=O)CNC(=O)[C@H](CC(C)C)NC(=O)[C@H](C)N)C(C)C)C(C)C)[C@@H](C)O)C(=O)N[C@@H](CO)C(=O)N[C@@H](CCCNC(=N)N)C(=O)N[C@@H](CCCCN)C(=O)O [Peptide 23] (H-ALGKLASKVFPAVYCTISRK-OH; N-terminus and C-terminus assumed)
MIC E. coli ([1]; 24 h): 128 µg/mL (≈ 59.5 µM)
MIC B. cereus [2, 3]: + (MIC greater than 256 ug/mL)

KVYVVKIAVPCFPKSARSVS [Shuffled 29]
MIC E. coli [1, 3]: + (MIC greater than 256 ug/mL)
MIC B. cereus [2, 3]: + (MIC greater than 256 ug/mL)

CC[C@H](C)[C@H](NC(=O)CN)C(=O)NCC(=O)N[C@@H](CCCCN)C(=O)N[C@@H](Cc1ccccc1)C(=O)N[C@@H](CC(C)C)C(=O)N[C@@H](Cc1c[nH]cn1)C(=O)N[C@@H](CO)C(=O)N[C@@H](C)C(=O)N[C@@H](CCCCN)C(=O)N[C@@H](CCCCN)C(=O)N[C@@H](Cc1ccccc1)C(=O)NCC(=O)N[C@@H](CCCCN)C(=O)N[C@@H](C)C(=O)N[C@@H](Cc1ccccc1)C(=O)N[C@H](C(=O)NCC(=O)N[C@@H](CCC(=O)O)C(=O)N[C@H](C(=O)N[C@@H](CCSC)C(=O)N[C@@H](CC(N)=O)C(=O)N[C@@H](CO)C(=O)O)[C@@H](C)CC)C(C)C [Magainin 2] (H-GIGKFLHSAKKFGKAFVGEIMNS-OH; N-terminus and C-terminus assumed)
MIC E. coli ([1]; 24 h): 64 µg/mL (≈ 25.9 µM)
MIC B. cereus ([2]; 24 h): 256 µg/mL (≈ 104 µM)

PKVVGLSIVVVKAKVSSALG [Shuffled 57]
MIC E. coli [1, 3]: + (MIC greater than 256 ug/mL)
MIC B. cereus [2, 3]: + (MIC greater than 256 ug/mL)
